Assay results taken from patent US8354436B2 (4SC Discovery GmbH, priority 2011, dated 2013).
Like-named read-outs stand apart in the source and are kept apart here.

Tests used:
Format in all cases: cell-based
Details in all cases: 48 hours
IL-17FF = IL-17FF production by PHA-stimulated human PBMC (human IL-17F ELI-Pair)
Procedure: Analysis of Proliferation of and Cytokine Production by Human PBMC Stimulated with PHA
Peripheral blood mononuclear cells (PBMC) from healthy human donors were purified using Accuspin™ System-Histopaque-1077 (Sigma) according to the protocol recommended by the manufacturer. Purified PBMC were then washed twice with phosphate-buffered saline (PBS) and resuspended in RPMI1640 culture medium supplemented with 10% dialyzed heat inactivated fetal calf serum, 1.5 mM L-glutamine, 100 U penicillin/ml, and […] (all from PAN Biotech, Aidenbach, Germany). For stimulation, PBMC were seeded at 1×10^5 cells/well, activated with 2 μg/ml phytohaemagglutinin (PHA, Sigma) and incubated with the test compounds for 48 hours. IL-17A, IL-17F and INF-γ were then determined in the culture supernatant using a Luminex BioPlex system, following the manufacturer's instructions (BioRad, Munich, Germany). For screening, compounds were used at 10, 1, 0.1 and 0.01 μM. To determine the IC50, compounds were titrated semilogarithmically.
Cytokines were determined in the aforementioned culture supernatant using the following methods: IL-17AA/AF was measured using the Luminex BioPlex system (BioRad, Munich, Germany); IL-17AA using the human homodimer IL-17A ELISA Ready Set Go Kit from eBioscience (Frankfurt, Germany); IL-17FF using the human IL-17F ELI-Pair from Hölzel DiagnosticaGmBH (Köln, Germany); and IFN-γ using the OptEIA human IFN-g ELISA from BD Bioscience (Heidelberg, Germany), all following the manufacturer's instructions.

[1] = tested on: PBMC from healthy human donors; test: T cell proliferation assay (PHA-stimulated human PBMC, BrdU ELISA)
Method in brief: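 Proliferation was quantified by BrdU ELISA 48 hours after starting culture of 1×10⁵ human PBMC per well with test compound and 2 μg/ml phytohaemagglutinin. Cells came from healthy donors via Ficoll separation and were kept in RPMI1640 with 10% dialysed heat-inactivated FCS.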

IFN-γ = IFN-γ production by PHA-stimulated human PBMC (OptEIA human IFN-g ELISA)
Method in brief: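 Supernatant cytokine levels are read by bead-based Luminex or sandwich ELISA after 48 h culture of PHA-stimulated (2 μg/ml) human PBMC with compound. Cells are seeded at 1×10^5 per well; IC50 values derive from semilogarithmic dilution series.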

[2] = human PBMC, 2 μg/ml PHA, read-out: B: IC50 (IL-17FF)
[3] = human PBMC, 2 μg/ml PHA, read-out: D: IC50 (Tcell proliferation)
[4] = human PBMC, 2 μg/ml PHA, read-out: C: IC50 (IFNγ)
[5] = PHA-stimulated human PBMC, column B, read-out: IC50 (IL-17FF)
[6] = PHA-stimulated human PBMC, column D, read-out: IC50 (Tcell proliferation)
[7] = PHA-stimulated human PBMC, column C, read-out: IC50 (IFNγ)

IC50 (IL-17FF; [2]) [µM]	IC50 (IFN-γ; [4]) [µM]	IC50 (IL-17FF; [5]) [µM]	IC50 (IFN-γ; [7]) [µM]	SMILES	IC50 [1, 3] [µM]	IC50 [1, 6] [µM]
1 to 10	1 to 10			Fc1cccc(-n2ncc(-c3onc(-c4c(F)cccc4Cl)c3-c3nnn[nH]3)c2C(F)(F)F)c1 [Example 2, 3-(2-chloro-6-fluorophenyl)-5-(1-(3-fluorophenyl)-5-(trifluoromethyl)-1H-pyrazol-4-yl)-4-(1H-tetrazol-5-yl)isoxazole]	1 to 10	
1 to 10	1 to 10			Fc1cccc(Cl)c1-c1noc(-c2cnn(-c3cccc(Cl)c3)c2C(F)(F)F)c1-c1nnn[nH]1 [Example 3, 3-(2-chloro-6-fluorophenyl)-5-(1-(3-chlorophenyl)-5-(trifluoromethyl)-1H-pyrazol-4-yl)-4-(1H-tetrazol-5-yl)isoxazole]	1 to 10	
< 0.01	< 0.01			Cc1csc(-c2c(-c3c(F)cccc3Cl)noc2-c2cnn(-c3cccc(Cl)c3)c2C(F)(F)F)n1 [Example 4]	< 0.01	
0.01 to 0.1	0.01 to 0.1			Fc1cccc(-n2ncc(-c3onc(-c4c(F)cccc4Cl)c3-c3nnc(C(F)(F)F)o3)c2C(F)(F)F)c1 [Example 6, 2-(3-(2-chloro-6-fluorophenyl)-5-(1-(3-fluorophenyl)-5-(trifluoromethyl)-1H-pyrazol-4-yl)isoxazol-4-yl)-5-(trifluoromethyl)-1,3,4-oxadiazole]	0.01 to 0.1	
< 0.01	< 0.01			Fc1cccc(-n2ncc(-c3onc(-c4c(F)cccc4Cl)c3-c3nnco3)c2C(F)(F)F)c1 [Example 7]	0.01 to 0.1	
		1 to 10		CCOC(=O)c1c(-c2onc(-c3c(F)cccc3Cl)c2C(=O)OC)cnn1-c1cccc(Cl)c1Cl [Example I-9, methyl 3-(2-chloro-6-fluorophenyl)-5-(1-(2,3-dichlorophenyl)-5-(ethoxycarbonyl)-1H-pyrazol-4-yl)isoxazole-4-carboxylate]		1 to 10
		1 to 10	1 to 10	COC(=O)c1c(-c2c(F)cccc2Cl)noc1-c1cnn(-c2ccc([N+](=O)[O-])cc2)c1C(F)(F)F [Example I-69, methyl 3-(2-chloro-6-fluorophenyl)-5-(1-(4-nitrophenyl)-5-(trifluoromethyl)-1H-pyrazol-4-yl)isoxazole-4-carboxylate]		
		1 to 10		CCOC(=O)c1c(-c2ccc(Cl)cc2)noc1-c1cnn(-c2cccc(Cl)c2)c1C(F)(F)F [Example I-77, ethyl 3-(4-chlorophenyl)-5-(1-(3-chlorophenyl)-5-(trifluoromethyl)-1H-pyrazol-4-yl)isoxazole-4-carboxylate]		1 to 10
		1 to 10	1 to 10	COC(=O)c1c(-c2c(F)cccc2Cl)noc1-c1cnn(-c2ccc(S(N)(=O)=O)cc2)c1C(F)(F)F [Example I-86, methyl 3-(2-chloro-6-fluorophenyl)-5-(1-(4-sulfamoylphenyl)-5-(trifluoromethyl)-1H-pyrazol-4-yl)isoxazole-4-carboxylate]		
		1 to 10	1 to 10	CCOC(=O)c1c(-c2ccc(OC)cc2)noc1-c1cnn(-c2cccc(F)c2)c1C(F)(F)F [Example I-100, ethyl 5-(1-(3-fluorophenyl)-5-(trifluoromethyl)-1H-pyrazol-4-yl)-3-(4-methoxyphenyl)isoxazole-4-carboxylate]		
		1 to 10	1 to 10	CNC(=O)c1c(-c2cccc(F)c2)noc1-c1cnn(-c2cccc(F)c2)c1C(F)(F)F [Example I-105, 3-(3-fluorophenyl)-5-(1-(3-fluorophenyl)-5-(trifluoromethyl)-1H-pyrazol-4-yl)-N-methylisoxazole-4-carboxamide]		
		1 to 10	1 to 10	CNC(=O)c1c(-c2ccccc2)noc1-c1cnn(-c2cc(F)cc(F)c2)c1C(F)(F)F [Example I-113, 5-(1-(3,5-difluorophenyl)-5-(trifluoromethyl)-1H-pyrazol-4-yl)-N-methyl-3-phenylisoxazole-4-carboxamide]		
		1 to 10	1 to 10	Fc1cc(F)c(F)c(-n2ncc(-c3onc(-c4c(F)cccc4Cl)c3Br)c2C(F)(F)F)c1F [Example I-144, 4-bromo-3-(2-chloro-6-fluorophenyl)-5-(1-(2,3,5,6-tetrafluorophenyl)-5-(trifluoromethyl)-1H-pyrazol-4-yl)isoxazole]		
		1 to 10		O=CNc1c(-c2c(F)cccc2Cl)noc1-c1cnn(-c2cccc(Cl)c2)c1C(F)(F)F [IB-48, N-(3-(2-chloro-6-fluorophenyl)-5-(1-(3-chlorophenyl)-5-(trifluoromethyl)-1H-pyrazol-4-yl)isoxazol-4-yl)formamide]		1 to 10
		1 to 10	1 to 10	CNC(=O)c1c(-c2c(F)cccc2Cl)noc1-c1cnn(-c2ccncc2)c1C(F)(F)F [IB-58, 3-(2-chloro-6-fluorophenyl)-N-methyl-5-(1-(pyridin-4-yl)-5-(trifluoromethyl)-1H-pyrazol-4-yl)isoxazole-4-carboxamide]		
		1 to 10	1 to 10	NS(=O)(=O)c1cccc(-n2ncc(-c3onc(-c4c(F)cccc4Cl)c3C(=O)N3CCCO3)c2C(F)(F)F)c1 [IB-65, 3-(4-(3-(2-chloro-6-fluorophenyl)-4-(isoxazolidine-2-carbonyl)isoxazol-5-yl)-5-(trifluoromethyl)-1H-pyrazol-1-yl)benzenesulfonamide]		
		1 to 10	1 to 10	CON(C)C(=O)c1c(-c2c(F)cccc2Cl)noc1-c1cnn(-c2cccc(S(N)(=O)=O)c2)c1C(F)(F)F [IB-66, 3-(2-chloro-6-fluorophenyl)-N-methoxy-N-methyl-5-(1-(3-sulfamoylphenyl)-5-(trifluoromethyl)-1H-pyrazol-4-yl)isoxazole-4-carboxamide]		
		1 to 10	1 to 10	CCOC(=O)c1c(-c2c(F)cccc2Cl)noc1-c1cnn(Cc2ccncc2)c1C(F)(F)F [IB-85, ethyl 3-(2-chloro-6-fluorophenyl)-5-(1-(pyridin-4-ylmethyl)-5-(trifluoromethyl)-1H-pyrazol-4-yl)isoxazole-4-carboxylate]		
		1 to 10	1 to 10	CON(C)C(=O)c1c(-c2c(F)cccc2Cl)noc1-c1cnn(-c2cccc(NC(C)=O)c2)c1C(F)(F)F [IB-87, 5-(1-(3-acetamidophenyl)-5-(trifluoromethyl)-1H-pyrazol-4-yl)-3-(2-chloro-6-fluorophenyl)-N-methoxy-N-methylisoxazole-4-carboxamide]		
		1 to 10	1 to 10	CC(=O)Nc1cccc(-n2ncc(-c3onc(-c4c(F)cccc4Cl)c3C(=O)N3CCCO3)c2C(F)(F)F)c1 [IB-88, N-(3-(4-(3-(2-chloro-6-fluorophenyl)-4-(isoxazolidine-2-carbonyl)isoxazol-5-yl)-5-(trifluoromethyl)-1H-pyrazol-1-yl)phenyl)acetamide]		
		1 to 10	1 to 10	CCOC(=O)c1c(-c2c(Cl)cncc2Cl)noc1-c1cnn(-c2cccc(F)c2)c1C(F)(F)F [IB-103, ethyl 3-(3,5-dichloropyridin-4-yl)-5-(1-(3-fluorophenyl)-5-(trifluoromethyl)-1H-pyrazol-4-yl)isoxazole-4-carboxylate]		
		1 to 10	1 to 10	CCOC(=O)c1c(-c2c(F)cccc2Cl)noc1-c1cnn(Cc2ccccn2)c1C(F)(F)F [IB-104, ethyl 3-(2-chloro-6-fluorophenyl)-5-(1-(pyridin-2-ylmethyl)-5-(trifluoromethyl)-1H-pyrazol-4-yl)isoxazole-4-carboxylate]		
